Results published in patent US20230140972A1, “GLYCEROL GLUCOSIDE-BASED COMPOUND AND COMPOSITION COMPRISING SAME FOR ULTRAVIOLET LIGHT SHIELD OR ANTI-INFLAMMATION” (ATHENA CO., LTD., priority 2020, published 2023).
“And” between values parts separate entries of the source, which are not always exact repeats. Identical values can stand only once.

Tested on: RAW264.7 cells
Assay: Cell viability measurement using MTT assay
Assay type: cell-based, mouse
Details: vs untreated group
Protocol: In order to evaluate a cell viability of the glycerol glucoside-based compound sample (EPS-S), an MTT assay was performed.
Specifically, subcultured RAW264.7 cells and HDF cells were aliquoted into a 96-well plate at 1×10^5, respectively, and cultured for 24 hours at 37° C. in an incubator containing 5% carbon dioxide, and then, a culture media was replaced with a serum-free media. Then, each sample was treated onto each cell by concentration. After culturing for 24 hours, an MTT solution was put into each well, reacted for 2 hours under light blocking, a supernatant was removed, a formed formazan was completely dissolved in DMSO, and an absorbance was measured at 540 nm with a microplate reader. In such a case, SDS was used as a positive control group. The test result value was calculated as in Equation 1 below and expressed as the cell viability compared to an untreated group, and was expressed as a mean±standard deviation.

SMILES: CCCCCCCCCCCCOS(=O)(=O)[O-].[Na+] [SDS]
- cell viability (24 h, 1 ppm): 99.95% and 99.95 ± 0.72%
- cell viability (24 h, 10 ppm): 96.29% and 96.29 ± 0.16%
- cell viability (24 h, 100 ppm): 7.75% and 7.75 ± 0.14%
- cell viability (24 h, 1,000 ppm): 6.67% and 6.67 ± 0.16%
